Results: ChEMBL document CHEMBL1152457, “Antimicrobial drug resistance of Salmonella enterica serovar typhi in asia and molecular mechanism of reduced susceptibility to the fluoroquinolones” (2007)
Values after ≈ are worked out from the molar mass of the structure shown.

Legend:
Type in all cases: functional, Salmonella enterica subsp. enterica serovar Typhi
[1] = test system: Salmonella enterica subsp. enterica; experiment: Antimicrobial activity against multidrug-resistant Salmonella enterica Serovar Typhi isolate A102 harboring DNA gyrase A S83Y mutation by disk diffusion method in presence of plasmid mediated quinolone-resistant gene qnrA and qnrS
[2] = test system: Salmonella enterica subsp. enterica; experiment: Antimicrobial activity against multidrug-resistant Salmonella enterica Serovar Typhi isolate ipt 33 harboring DNA gyrase A S83F mutation by disk diffusion method
[3] = test system: Salmonella enterica subsp. enterica; experiment: Antimicrobial activity against multidrug-resistant Salmonella enterica Serovar Typhi isolate AG8 harboring DNA gyrase A S83F mutation by disk diffusion method
[4] = test system: Salmonella enterica subsp. enterica; experiment: Antimicrobial activity against multidrug-resistant Salmonella enterica Serovar Typhi isolate DT15 harboring DNA gyrase A S83F mutation by disk diffusion method
[5] = test system: Salmonella enterica subsp. enterica; experiment: Antimicrobial activity against multidrug-resistant Salmonella enterica Serovar Typhi isolate BL 21095 harboring DNA gyrase A S83F mutation by disk diffusion method in presence of plasmid mediated quinolone-resistant gene qnrA and qnrS
[6] = test system: Salmonella enterica subsp. enterica; experiment: Antimicrobial activity against multidrug-resistant Salmonella enterica Serovar Typhi isolate DT18 harboring DNA gyrase A S83F and D87G mutation by disk diffusion method
[7] = test system: Salmonella enterica subsp. enterica; experiment: Antimicrobial activity against multidrug-resistant Salmonella enterica Serovar Typhi isolate CT29 harboring DNA gyrase A S83F mutation by disk diffusion method in presence of plasmid mediated quinolone-resistant gene qnrA and qnrS
[8] = test system: Salmonella enterica subsp. enterica; experiment: Antimicrobial activity against Salmonella enterica Serovar Typhi isolate C152 harboring DNA gyrase A S83Y mutation by disk diffusion method in presence of plasmid mediated quinolone-resistant gene qnrA and qnrS
[9] = test system: Salmonella enterica subsp. enterica; experiment: Antimicrobial activity against multidrug-resistant Salmonella enterica Serovar Typhi isolate DT60 harboring DNA gyrase A S83F mutation by disk diffusion method
[10] = test system: Salmonella enterica subsp. enterica; experiment: Antimicrobial activity against multidrug-resistant Salmonella enterica Serovar Typhi isolate nar 50 harboring DNA gyrase A S83F mutation by disk diffusion method
[11] = test system: Salmonella enterica subsp. enterica; experiment: Antimicrobial activity against multidrug-resistant Salmonella enterica Serovar Typhi isolate nar 102 harboring DNA gyrase A S83F mutation by disk diffusion method in presence of plasmid mediated quinolone-resistant gene qnrA and qnrS
[12] = test system: Salmonella enterica subsp. enterica; experiment: Antimicrobial activity against Salmonella enterica Serovar Typhi isolate D43 harboring DNA gyrase A S83Y mutation by disk diffusion method in presence of plasmid mediated quinolone-resistant gene qnrA and qnrS
[13] = test system: Salmonella enterica subsp. enterica; experiment: Antimicrobial activity against multidrug-resistant Salmonella enterica Serovar Typhi isolate CT61 harboring DNA gyrase A S83F mutation by disk diffusion method in presence of plasmid mediated quinolone-resistant gene qnrA and qnrS
[14] = test system: Salmonella enterica subsp. enterica; experiment: Antimicrobial activity against multidrug-resistant Salmonella enterica Serovar Typhi isolate nar 104 harboring DNA gyrase A S83F mutation by disk diffusion method in presence of plasmid mediated quinolone-resistant gene qnrA and qnrS
[15] = test system: Salmonella enterica subsp. enterica; experiment: Antimicrobial activity against Salmonella enterica Serovar Typhi isolate CT142 harboring DNA gyrase A S83F mutation by disk diffusion method in presence of plasmid mediated quinolone-resistant gene qnrA and qnrS
[16] = test system: Salmonella enterica subsp. enterica; experiment: Antimicrobial activity against multidrug-resistant Salmonella enterica Serovar Typhi isolate DT42 harboring DNA gyrase A S83F mutation by disk diffusion method
[17] = test system: Salmonella enterica subsp. enterica; experiment: Antimicrobial activity against multidrug-resistant Salmonella enterica Serovar Typhi isolate nar 107 harboring DNA gyrase A S83F mutation by disk diffusion method in presence of plasmid mediated quinolone-resistant gene qnrA and qnrS
[18] = test system: Salmonella enterica subsp. enterica; experiment: Antimicrobial activity against multidrug-resistant Salmonella enterica Serovar Typhi isolate nar 28 harboring DNA gyrase A S83F mutation by disk diffusion method
[19] = test system: Salmonella enterica subsp. enterica; experiment: Antimicrobial activity against multidrug-resistant Salmonella enterica Serovar Typhi isolate AG7 harboring DNA gyrase A S83F mutation by disk diffusion method
[20] = test system: Salmonella enterica subsp. enterica; experiment: Antimicrobial activity against multidrug-resistant Salmonella enterica Serovar Typhi isolate AG16 harboring DNA gyrase A S83F mutation by disk diffusion method
[21] = test system: Salmonella enterica subsp. enterica; experiment: Antimicrobial activity against Salmonella enterica Serovar Typhi isolate BL 21801 harboring DNA gyrase A S83F mutation by disk diffusion method in presence of plasmid mediated quinolone-resistant gene qnrA and qnrS
[22] = test system: Salmonella enterica subsp. enterica; experiment: Antimicrobial activity against multidrug-resistant Salmonella enterica Serovar Typhi isolate AG168 harboring DNA gyrase A S83F mutation by disk diffusion method
[23] = test system: Salmonella enterica subsp. enterica; experiment: Antimicrobial activity against multidrug-resistant Salmonella enterica Serovar Typhi isolate AG15 harboring DNA gyrase A S83F mutation by disk diffusion method
[24] = test system: Salmonella enterica subsp. enterica; experiment: Antimicrobial activity against multidrug-resistant Salmonella enterica Serovar Typhi isolate DT3 harboring DNA gyrase A S83F mutation by disk diffusion method in presence of plasmid mediated quinolone-resistant gene qnrA and qnrS
[25] = test system: Salmonella enterica subsp. enterica; experiment: Antimicrobial activity against multidrug-resistant Salmonella enterica Serovar Typhi isolate DT54 harboring DNA gyrase A S83F mutation by disk diffusion method
[26] = test system: Salmonella enterica subsp. enterica; experiment: Antimicrobial activity against Salmonella enterica Serovar Typhi isolate ipt 2 harboring DNA gyrase A D87G mutation by disk diffusion method in presence of plasmid mediated quinolone-resistant gene qnrA and qnrS
[27] = test system: Salmonella enterica subsp. enterica; experiment: Antimicrobial activity against multidrug-resistant Salmonella enterica Serovar Typhi isolate nar 51 harboring DNA gyrase A S83F mutation by disk diffusion method
[28] = test system: Salmonella enterica subsp. enterica; experiment: Antimicrobial activity against Salmonella enterica Serovar Typhi isolate CT144 harboring DNA gyrase A D87G mutation by disk diffusion method in presence of plasmid mediated quinolone-resistant gene qnrA and qnrS
[29] = test system: Salmonella enterica subsp. enterica; experiment: Antimicrobial activity against multidrug-resistant Salmonella enterica Serovar Typhi isolate DT2 harboring DNA gyrase A S83F mutation by disk diffusion method in presence of plasmid mediated quinolone-resistant gene qnrA and qnrS
[30] = test system: Salmonella enterica subsp. enterica; experiment: Antimicrobial activity against multidrug-resistant Salmonella enterica Serovar Typhi isolate nar 45 harboring DNA gyrase A S83F mutation by disk diffusion method
[31] = test system: Salmonella enterica subsp. enterica; experiment: Antimicrobial activity against multidrug-resistant Salmonella enterica Serovar Typhi isolate DT40 harboring DNA gyrase A S83F mutation by disk diffusion method
[32] = test system: Salmonella enterica subsp. enterica; experiment: Antimicrobial activity against Salmonella enterica Serovar Typhi isolate AG259 harboring DNA gyrase A S83F mutation by disk diffusion method in presence of plasmid mediated quinolone-resistant gene qnrA and qnrS
[33] = test system: Salmonella enterica subsp. enterica; experiment: Antimicrobial activity against multidrug-resistant Salmonella enterica Serovar Typhi isolate AG6 harboring DNA gyrase A S83F mutation by disk diffusion method
[34] = test system: Salmonella enterica subsp. enterica; experiment: Antimicrobial activity against multidrug-resistant Salmonella enterica Serovar Typhi isolate HTD 798 harboring DNA gyrase A S83F mutation by disk diffusion method
[35] = test system: Salmonella enterica subsp. enterica; experiment: Antimicrobial activity against Salmonella enterica Serovar Typhi isolate AG169 harboring DNA gyrase A S83F mutation by disk diffusion method
[36] = test system: Salmonella enterica subsp. enterica; experiment: Antimicrobial activity against multidrug-resistant Salmonella enterica Serovar Typhi isolate BL 3769 harboring DNA gyrase A S83F mutation by disk diffusion method in presence of plasmid mediated quinolone-resistant gene qnrA and qnrS
[37] = test system: Salmonella enterica subsp. enterica; experiment: Antimicrobial activity against Salmonella enterica Serovar Typhi isolate AG258 harboring DNA gyrase A S83F mutation by disk diffusion method in presence of plasmid mediated quinolone-resistant gene qnrA and qnrS
[38] = test system: Salmonella enterica subsp. enterica; experiment: Antimicrobial activity against Salmonella enterica Serovar Typhi isolate nar 108 harboring DNA gyrase A S83F mutation by disk diffusion method in presence of plasmid mediated quinolone-resistant gene qnrA and qnrS
[39] = test system: Salmonella enterica subsp. enterica; experiment: Antimicrobial activity against Salmonella enterica Serovar Typhi isolate AG3 harboring DNA gyrase A S83F mutation by disk diffusion method

Structure (SMILES) | MIC [1] [µg/mL] | MIC [2] [µg/mL] | MIC [3] [µg/mL] | MIC [4] [µg/mL] | MIC [5] [µg/mL] | MIC [6] [µg/mL] | MIC [7] [µg/mL] | MIC [8] [µg/mL] | MIC [9] [µg/mL] | MIC [10] [µg/mL] | MIC [11] [µg/mL] | MIC [12] [µg/mL] | MIC [13] [µg/mL] | MIC [14] [µg/mL] | MIC [15] [µg/mL] | MIC [16] [µg/mL] | MIC [17] [µg/mL] | MIC [18] [µg/mL] | MIC [19] [µg/mL] | MIC [20] [µg/mL] | further results
O=C(O)c1cn(C2CC2)c2cc(N3CCNCC3)c(F)cc2c1=O [CIPROFLOXACIN] | 0.25 | 0.5 (≈ 1.51 µM) | 0.5 (≈ 1.51 µM) | 0.5 (≈ 1.51 µM) | 0.25 | 0.5 (≈ 1.51 µM) | 0.5 | 0.25 | 0.25 (≈ 0.754 µM) | 0.5 (≈ 1.51 µM) | 0.125 | 0.25 | 0.125 | 0.25 | 0.38 | 0.5 (≈ 1.51 µM) | 0.25 | 0.5 (≈ 1.51 µM) | 0.5 (≈ 1.51 µM) | 0.38 (≈ 1.15 µM) | MIC [21]: 0.25 µg/mL; MIC [22]: 0.38 µg/mL (≈ 1.15 µM); MIC [23]: 0.5 µg/mL (≈ 1.51 µM); MIC [24]: 0.5 µg/mL; MIC [25]: 0.5 µg/mL (≈ 1.51 µM); MIC [26]: 0.25 µg/mL; MIC [27]: 0.5 µg/mL (≈ 1.51 µM); MIC [28]: 0.25 µg/mL; MIC [29]: 0.5 µg/mL; MIC [30]: 0.5 µg/mL (≈ 1.51 µM); MIC [31]: 0.38 µg/mL (≈ 1.15 µM); MIC [32]: 0.38 µg/mL; MIC [33]: 0.5 µg/mL (≈ 1.51 µM); MIC [34]: 0.38 µg/mL (≈ 1.15 µM); MIC [35]: 0.38 µg/mL (≈ 1.15 µM); MIC [36]: 0.25 µg/mL; MIC [37]: 0.5 µg/mL; MIC [38]: 0.25 µg/mL
COc1c(N2CCNC(C)C2)c(F)cc2c(=O)c(C(=O)O)cn(C3CC3)c12 (configuration not stated) [GATIFLOXACIN] | 0.19 | 0.125 (≈ 0.333 µM) | 0.19 (≈ 0.506 µM) | 0.094 (≈ 0.25 µM) | 0.19 | 0.25 (≈ 0.666 µM) | 0.094 | 0.19 | 0.125 (≈ 0.333 µM) | 0.094 (≈ 0.25 µM) | 0.094 | 0.19 | 0.064 | 0.125 | 0.125 | 0.125 (≈ 0.333 µM) | 0.125 | 0.19 (≈ 0.506 µM) | 0.19 (≈ 0.506 µM) | 0.13 (≈ 0.346 µM) | MIC [21]: 0.19 µg/mL; MIC [39]: 0.25 µg/mL (≈ 0.666 µM); MIC [22]: 0.13 µg/mL (≈ 0.346 µM); MIC [23]: 0.13 µg/mL (≈ 0.346 µM); MIC [24]: 0.094 µg/mL; MIC [25]: 0.125 µg/mL (≈ 0.333 µM); MIC [26]: 0.125 µg/mL; MIC [27]: 0.125 µg/mL (≈ 0.333 µM); MIC [28]: 0.094 µg/mL; MIC [29]: 0.125 µg/mL; MIC [30]: 0.125 µg/mL (≈ 0.333 µM); MIC [31]: 0.125 µg/mL (≈ 0.333 µM); MIC [32]: 0.13 µg/mL; MIC [33]: 0.19 µg/mL (≈ 0.506 µM); MIC [34]: 0.13 µg/mL (≈ 0.346 µM); MIC [35]: 0.13 µg/mL (≈ 0.346 µM); MIC [36]: 0.19 µg/mL; MIC [37]: 0.19 µg/mL; MIC [38]: 0.125 µg/mL
